From patent US12419900B2, “Induction of synthetic lethality with epigenetic therapy” (The Johns Hopkins University, priority 2017, dated 2025)
Where two headings read alike, the source gives them in different places.

How the values were obtained:
[1] = tested on: PC-3 cancer cells; experiment: Chemical library screen (JHDL), second stage, dose response matrix with decitabine; format: cell-based
Text: Cells were exposed to each dose of decitabine for four consecutive days prior to addition of each dose of the identified compounds for three consecutive days. […] FIG. 30 is a bar graph illustrating the Bliss Independence score values for the cells of the compounds identified.

[2] = tested on: DU145 prostate cancer cells; experiment: Alamar blue cell viability and growth, alisertib x decitabine dose matrix; format: cell-based; conditions: Aurora kinase inhibitor + decitabine
Protocol: DU145 prostate cancer cells and A549 lung cancer cells were treated with varying concentrations (0 nM, 10 nM, 50 nM, and 100 nM) of alisertib in addition to varying concentrations of decitabine (0 nM, 50 nM, 100 nM, and 250 nM). Representative data are shown in FIGS. 2A and 2B, as well as the Tables below. […] In each panel, a dose response of each drug alone and in combination was used in Alamar blue cell viability assays. […] Formal synergy analyses were performed using the Bliss independence score (where values greater than zero indicate greater than additive effect). […] The graph of FIG. 2A is a growth curve of the DU145 prostate cancer cells for the agents alone (decitabine and alisertib separately), a vehicle control, and the agents in combination (decitabine and alisertib together). […] Likewise, the graph of FIG. 2B is a growth curve of the A549 lung cancer cells for the agents alone (decitabine and alisertib separately), a vehicle control, and the agents in combination (decitabine and alisertib together). […] The synergy analysis of the combination of decitabine and alisertib was evaluated in a series of 18 cancer cell lines (9 prostate, 1 ovarian, 1 lung, 2 colon, 2 central nervous system, and 3 breast cancer cell lines) and 2 non-cancer cell models.

[3] = tested on: retinoic acid signaling pathway; experiment: pRARE-luciferase reporter of retinoic acid signaling in PC-3 cells; format: cell-based, human; conditions: 72 hours; for RAR Reporter Activity, Average / RAR Reporter Activity, Trial 1 / RAR Reporter Activity, Trial 2 / RAR Reporter Activity, Trial 3 / RAR Reporter Activity, Trial 4 / RAR Reporter Activity, Trial 5 / RAR Reporter Activity, Trial 6: KCC-08 10 μM, isotretinoin 5 μM, vehicle average 1.00
Protocol: To determine whether MBD2 protein inhibitors triggered retinoic acid signaling pathway activation, KCC-08 was administered to PC-3 human prostate cancer cells transfected with a heterologous reporter plasmid responsive to the presence of retinoic acid signaling (pRARE-luciferase), and the cells were used to assess reactivation of the retinoic acid response signaling pathway. The cancer cells were treated with a vehicle control or KCC-08 (10 μM) both with and without isotretinoin (5 μM) for 72 hours, and then assayed for luciferase reporter production.

[4] = tested on: PC-3 xenograft tumors; experiment: PC-3 xenograft growth suppression; format: in vivo, Male Fox1-nude mice; conditions: KCC-08 i.p. 1 then 0.5 mg/kg, isotretinoin oral 30 mg/kg
Protocol: For cancer xenograft growth suppression, one million human PC-3 prostate cancer cells were suspended in Matrigel and inoculated into the flanks of Male Fox1-nude mice provided by Jackson Laboratory (Bar Harbor, ME). When the resultant xenograft tumors were measurable two weeks later, the tumor-bearing mice were treated with KCC-08, given by intraperitoneal infection in saline for 5 of 7 days at 1 mg/kg for week 1 and then 0.5 mg/kg for 5 of 7 days for week 2. Isotretinoin was given by oral gavage in peanut oil at 30 mg/kg for the same 5 of 7 days as the KCC-08 for weeks 1 and 2. For week 3, isotretinoin was given by oral gavage in peanut oil at 30 mg/kg for 5 of 7 days, and KCC-08 was not administered. Tumors were measured 3 times a week for 3 weeks, and the volume was estimated by using the formula 4/3*Π*width*length*depth.

[5] = tested on: PC-3 cancer cells; experiment: Clonogenic survival; format: cell-based, human; conditions: 72 hours treatment, colonies ten days later, vehicle control 100.00, 12-27 replicates
Protocol: To assay for cancer clonogenic survival, PC-3 cancer cells were seeded into 6-well plates at 5,000 cells/well and allowed to attach overnight. Next, the cells were treated for 72 hours with vehicle control or KCC-08, both with and without isotretinoin, washed three times with phosphate-buffered saline, and then placed back into complete growth medium. Ten days later, colonies founded by surviving cells were detected using crystal violet staining.

[6] = PC-3, decitabine 0-10 μM four days, then compound 0-10 μM three days

**Q.** Which “growth inhibition when combined with decitabine (Bliss independence score sum across all dose combinations greater than zero)” value (shortened to “growth inhibition when combined”) [1] does the source give for `CCCCCCCCCCCCCCCCn1cc[n+](Cc2ccccc2)c1C.[I-]` [NH125] here?
**A.** synergistic growth inhibition

**Q.** Which “growth inhibition when combined” value [1, 6] does the source give for `CCC1=C[C@@H]2CN(C1)Cc1c([nH]c3ccccc13)[C@@](C(=O)OC)(c1cc3c(cc1OC)N(C)[C@H]1[C@@](O)(C(=O)OC)[C@H](OC(C)=O)[C@]4(CC)C=CCN5CC[C@]31[C@@H]54)C2` [vinorelbine] here?
**A.** synergistic growth inhibition

**Q.** With `CO[C@H]1C[C@H](O[C@H]2CC[C@]3(C)[C@H]4CC[C@]5(C)[C@@H](C6=CC(=O)OC6)CC[C@]5(O)[C@@H]4CC[C@]3(O)C2)O[C@H](C)[C@H]1O` [periplocymarin] as the compound, how does the “growth inhibition when combined” value [1] read?
**A.** synergistic growth inhibition

**Q.** With `Cc1csc(-c2nnc(Nc3ccc(Oc4ncccc4-c4ccnc(N)n4)cc3)c3ccccc23)c1` [AMG-900] as the compound, how does the “growth inhibition of DU-145 cells in combination with decitabine” value [2] read?
**A.** synergistic growth inhibition

**Q.** `COc1cc2c(c(OC)c1OC)-c1ccc(OC)c(=O)cc1[C@@H](NC(C)=O)CC2` [colchicine] was tested. Which “growth inhibition when combined” value [1] did it give?
**A.** synergistic growth inhibition

**Q.** For `CC[C@@]1(O)C(=O)OCc2c1cc1n(c2=O)Cc2cc3c(CN(C)C)c(O)ccc3nc2-1` [topotecan], which “growth inhibition when combined” value [1, 6] is on record?
**A.** synergistic growth inhibition

**Q.** Which “growth inhibition when combined” value [1, 6] does the source give for `O=C1NC(=O)c2c1c1c3ccccc3n3c1c1c2c2ccccc2n1C1CCC3O1` [SB218078] here?
**A.** synergistic growth inhibition

**Q.** For `O=C(O)c1ccc(Nc2ncc3c(n2)-c2ccc(Cl)cc2C(c2c(F)cccc2F)=NC3)cc1` [MLN8054], which “growth inhibition of DU-145 cells in combination with decitabine” value [2] is on record?
**A.** synergistic growth inhibition

**Q.** Which “luciferase activity / retinoic acid signaling pathway activation” value ([3]; KCC-08 10 μM with or without isotretinoin 5 μM) does the source give for `Cn1c2ccccc2n2cc(-c3ccc([N+](=O)[O-])cc3)nc12` [KCC-08] here?
**A.** enhanced

**Q.** And the “RAR Reporter Activity, Average” value [3]?
**A.** 2.24

**Q.** And the “RAR Reporter Activity, Trial 1” value [3]?
**A.** 2.08

**Q.** And the “RAR Reporter Activity, Trial 2” value [3]?
**A.** 2.31

**Q.** And the “RAR Reporter Activity, Trial 3” value [3]?
**A.** 1.96

**Q.** What about the “RAR Reporter Activity, Trial 4” value [3] of the same compound?
**A.** 2.46

**Q.** And the “RAR Reporter Activity, Trial 5” value [3]?
**A.** 2.36

**Q.** And the “RAR Reporter Activity, Trial 6” value [3]?
**A.** 2.28

**Q.** And the “Percent average xenograft tumor volume relative to baseline, Average” value ([4]; Day 1)?
**A.** 100%

**Q.** And the “Percent average xenograft tumor volume relative to baseline, Average” value ([4]; Day 4)?
**A.** 151.16%

**Q.** And the “Percent average xenograft tumor volume relative to baseline, Average” value ([4]; Day 8)?
**A.** 223.22%

**Q.** And the “Percent average xenograft tumor volume relative to baseline, Average” value ([4]; Day 11)?
**A.** 250.94%

**Q.** What about the “Percent average xenograft tumor volume relative to baseline, Average” value ([4]; Day 15) of the same compound?
**A.** 338.37%

**Q.** What about the “Percent average xenograft tumor volume relative to baseline, Average” value ([4]; Day 18) of the same compound?
**A.** 406.04%

**Q.** And the “Percent average xenograft tumor volume relative to baseline, Average” value ([4]; Day 22)?
**A.** 452.09%

**Q.** What about the “Clonogenic Survival Relative to Control, Average” value [5] of the same compound?
**A.** 96.86

**Q.** Which “growth inhibition when combined” value [1, 6] does the source give for `COc1c(C)c2c(c(O)c1C/C=C(\C)CCC(=O)O)C(=O)OC2` [mycophenolic acid] here?
**A.** synergistic growth inhibition

**Q.** Which “growth inhibition when combined” value [1, 6] does the source give for `COc1ccc(C[C@H]2NC[C@H](O)[C@H]2OC(C)=O)cc1` [anisomycin] here?
**A.** synergistic growth inhibition

**Q.** With `N.N.O=C([O-])C1(C(=O)[O-])CCC1.[Pt+2]` [carboplatin] as the compound, how does the “growth inhibition when combined” value [1, 6] read?
**A.** synergistic growth inhibition

**Q.** With `CC1=C(/C=C/C(C)=C/C=C/C(C)=C\C(=O)O)C(C)(C)CCC1` [Isotretinoin, isotretinoin] as the compound, how does the “RAR Reporter Activity, Average” value [3] read?
**A.** 1.57

**Q.** What about the “RAR Reporter Activity, Trial 1” value [3] of the same compound?
**A.** 1.66

**Q.** What about the “RAR Reporter Activity, Trial 2” value [3] of the same compound?
**A.** 1.77

**Q.** What about the “RAR Reporter Activity, Trial 3” value [3] of the same compound?
**A.** 1.62

**Q.** What about the “RAR Reporter Activity, Trial 4” value [3] of the same compound?
**A.** 1.42

**Q.** And the “RAR Reporter Activity, Trial 5” value [3]?
**A.** 1.47

**Q.** And the “RAR Reporter Activity, Trial 6” value [3]?
**A.** 1.46

**Q.** What about the “Percent average xenograft tumor volume relative to baseline, Average” value ([4]; Day 1) of the same compound?
**A.** 100%

**Q.** And the “Percent average xenograft tumor volume relative to baseline, Average” value ([4]; Day 4)?
**A.** 161.09%

**Q.** What about the “Percent average xenograft tumor volume relative to baseline, Average” value ([4]; Day 8) of the same compound?
**A.** 238.81%

**Q.** And the “Percent average xenograft tumor volume relative to baseline, Average” value ([4]; Day 11)?
**A.** 315.81%

**Q.** And the “Percent average xenograft tumor volume relative to baseline, Average” value ([4]; Day 15)?
**A.** 394.27%

**Q.** And the “Percent average xenograft tumor volume relative to baseline, Average” value ([4]; Day 18)?
**A.** 488.75%

**Q.** What about the “Percent average xenograft tumor volume relative to baseline, Average” value ([4]; Day 22) of the same compound?
**A.** 522.19%

**Q.** What about the “Clonogenic Survival Relative to Control, Average” value [5] of the same compound?
**A.** 96.62

**Q.** `C[C@]12CC[C@H]3[C@@H](CC[C@]4(O)C[C@@H](O)CC[C@]34C=O)[C@@]1(O)CC[C@@H]2C1=CC(=O)OC1` [strophanthidin] was tested. Which “growth inhibition when combined” value [1] did it give?
**A.** synergistic growth inhibition

**Q.** `CC(C)[C@@H]1NC(=O)[C@H](C)OC(=O)[C@@H](C(C)C)NC(=O)[C@@H](C(C)C)OC(=O)[C@H](C(C)C)NC(=O)[C@H](C)OC(=O)[C@@H](C(C)C)NC(=O)[C@@H](C(C)C)OC(=O)[C@H](C(C)C)NC(=O)[C@H](C)OC(=O)[C@@H](C(C)C)NC(=O)[C@@H](C(C)C)OC1=O` [valinomycin] was tested. Which “growth inhibition when combined” value [1, 6] did it give?
**A.** synergistic growth inhibition

**Q.** Which “growth inhibition when combined” value [1] does the source give for `Cn1cc(C2=C(c3cn(CCCSC(=N)N)c4ccccc34)C(=O)NC2=O)c2ccccc21` [RO31-8220] here?
**A.** synergistic growth inhibition

**Q.** How did the “growth inhibition when combined” value [1] turn out when `CC[C@@]1(O)C[C@H](O[C@H]2C[C@H](N(C)C)[C@H](O[C@H]3C[C@H](O)[C@H](O[C@H]4CCC(=O)[C@H](C)O4)[C@H](C)O3)[C@H](C)O2)c2c(cc3c(c2O)C(=O)c2c(O)cccc2C3=O)[C@H]1C(=O)OC` [aclarubicin] was run?
**A.** synergistic growth inhibition

**Q.** How did the “growth inhibition when combined” value [1, 6] turn out when `Nc1ccc(-c2cccc3c(=O)cc(N4CCOCC4)oc23)cc1` [PI828] was run?
**A.** synergistic growth inhibition

**Q.** Which “growth inhibition when combined” value [1, 6] does the source give for `Cc1ccc2c(=O)c3ccccc3n(CCCN)c2c1C.O=C(O)C(=O)O` [ER27319] here?
**A.** synergistic growth inhibition

**Q.** Which “growth inhibition when combined” value [1, 6] does the source give for `Nc1ccn([C@@H]2O[C@H](CO)[C@@H](O)C2(F)F)c(=O)n1` [gemcitabine] here?
**A.** synergistic growth inhibition

**Q.** With `C[C@@H]1O[C@@H](O[C@H]2C[C@@H](O)[C@]3(CO)[C@H]4[C@H](O)C[C@]5(C)[C@@H](C6=CC(=O)OC6)CC[C@]5(O)[C@@H]4CC[C@]3(O)C2)[C@H](O)[C@H](O)[C@H]1O` [ouabain] as the compound, how does the “growth inhibition when combined” value [1, 6] read?
**A.** synergistic growth inhibition

**Q.** For `CC(=O)O[C@@]12CO[C@@H]1C[C@H](O)[C@@]1(C)C(=O)[C@H](O)C3=C(C)[C@@H](OC(=O)[C@H](O)[C@@H](NC(=O)OC(C)(C)C)c4ccccc4)C[C@@](O)([C@@H](OC(=O)c4ccccc4)[C@H]21)C3(C)C` [docetaxel], which “growth inhibition when combined” value [1, 6] is on record?
**A.** synergistic growth inhibition

**Q.** Which “growth inhibition when combined” value [1, 6] does the source give for `COc1cc2ncn(-c3cc(OCc4ccccc4C(F)(F)F)c(C(N)=O)s3)c2cc1OC` [GW843682] here?
**A.** synergistic growth inhibition

**Q.** With `Nc1ccn([C@@H]2O[C@H](CO)[C@@H](O)[C@@H]2O)c(=O)n1` [cytarabine] as the compound, how does the “growth inhibition when combined” value [1, 6] read?
**A.** synergistic growth inhibition
